Reference: paper PMC10888192, “New Derivatives of 1-(3-Methyl-1-Benzofuran-2-yl)Ethan-1-one: Synthesis and Preliminary Studies of Biological Activity” (International Journal of Molecular Sciences, 2024)
Values after ≈ are worked out from the molar mass of the structure shown.

How the values were obtained:
HL-60 leukemic cell line = test system: HL-60 leukemic cell line; set-up: method as in PMID 20657389, PMID 25482722, PMID 30465514, PMID 31003438; settings: lead compound; ref [32],[33],[34],[35]; cited from earlier work
K562 leukemic cell line = test system: K562 leukemic cell line; set-up: method as in PMID 20657389, PMID 25482722, PMID 30465514, PMID 31003438; settings: lead compound; ref [32],[33],[34],[35]; cited from earlier work
HeLa cancer cells = test system: HeLa cancer cells; set-up: method as in PMID 20657389, PMID 25482722, PMID 30465514, PMID 31003438; settings: lead compound; ref [32],[33],[34],[35]; cited from earlier work
[1] = test system: K562 cells (human chronic myelogenous leukemia); assay: MTT cytotoxicity assay, K562; type: cell-based; settings: 72 h incubation, mean ± SD
Description: (§1) The cell viability was analyzed at the following six concentrations of compounds: 5, 10, 20, 40, 60 and 100 µM after 72 h incubation.
(§2) Additionally, to determine the safety profile of the tested compounds, the therapeutic index (TI) (the ratio of IC50 value in HaCaT to cancer cells K562) was calculated. […] The goal of conducting the MTT assay in this research was to select benzofuran derivatives, which manage to reduce viability of cancer cells while exposing mild effects on normal healthy cells.
(§3) The cytotoxicity was evaluated by MTT reduction assay, which measures mitochondrial respiratory function. The test was performed based on the method described by Präbst et al.. Cells (1 × 10^4/well), in logarithmic phase, were seeded into 96-well plates in appropriate medium. After 24 h, cells were exposed to test compounds. […] After 72 h, the medium with the compounds was completely removed and MTT solution (0.5 mg/mL) in fresh medium without serum was added to each well. Plates with cells were incubated for 4 h at 37 °C in the dark. Then, MTT solution was removed and replenished with 0.1 mL DMSO: isopropanol (1:1) mixture to dissolve the generated formazan crystals. The optical density was measured with a […] GO (ThermoScientific) microplate reader at 570 nm. Replicates of three wells for each dosage, including vehicle control, were analyzed for each experiment. The experiments were conducted in triplicate. Control cells which were only treated with respective medium were used as the 100% viability value. […] Additionally, to determine the safety profile of the test compounds, therapeutic indexes (TI) (the ratio of IC50 values in HaCat to cancer cells (K562, PC3, SW620, Cack-1)) were calculated.

[2] = test system: HaCaT cells (human immortal keratinocytes); assay: MTT cytotoxicity assay, HaCaT; type: cell-based; settings: 72 h incubation, mean ± SD
Description: as §1, §2, §3

[3] = test system: PC3 cells (human metastatic prostate cancer); assay: MTT cytotoxicity assay, PC3; type: cell-based; settings: PC-3, 72 h incubation, mean ± SD
Description: as §1, §2, §3

[4] = test system: SW620 cells (human metastatic colon cancer); assay: MTT cytotoxicity assay, SW620; type: cell-based; settings: SW-620, 72 h incubation, mean ± SD
Description: as §1, §2, §3

[5] = test system: Cacki-1 cells (human clear cell renal cell carcinoma); assay: MTT cytotoxicity assay, Cacki-1; type: cell-based; settings: 72 h incubation
Description: as §1, §2, §3

E. coli ATCC 25922 = assay: MIC, microdilution; type: cell-based; settings: Escherichia coli, ATCC25922; 18 h, 35 °C, MH II medium
Description: (§4) The antimicrobial studies for all of the obtained compounds were conducted using reference strains of bacteria derived from international microbe collections—the American Type Culture Collection (ATCC) and the National Collection of Type Culture (NCTC). Among the reference strains there were two Gram-negative rods (P. aeruginosa ATCC 15442 and E. coli ATCC 25922) and six Gram-positive isolates (Staphylococcus aureus: NCTC 4163, ATCC 25923, ATCC 6538, ATCC 29213, S. epidermidis ATCC 12228, ATCC 35984).
(§5) The antimicrobial activity of compounds was expressed by minimum inhibitory concentration values (MICs), according to CLCI reference procedures with some modifications. MIC was tested by the two-fold serial microdilution method (in 96-well microtiter plates) on MH II liquid medium. The final inoculum of all of the studied bacteria was 10^6 CFU/mL (colony forming unit per mL). The stock solution of tested compounds was prepared in DMSO and was diluted in sterile medium (to a maximum of 1% of solvent content). The concentrations of compounds were from 16 to 512 µg/mL. […] Clinical microorganisms used in this study were obtained from the collection of the Department of Pharmaceutical Microbiology, Medical University of Warsaw, Poland [70, 71].

[6] = test system: S. epidermidis ATCC 35984; assay: MIC, microdilution; type: cell-based; settings: Staphylococcus epidermidis, ATCC35984; 18 h, 35 °C, MH II medium
Description: as §4, §5

S.aureus NCTC 29213 = assay: MIC, microdilution; type: cell-based; settings: Staphylococcus aureus, NCTC29213, 18 h, read-out: MIC S.aureus NCTC 29213
Description: as §4, §5

S.aureus ATCC 25923 = assay: MIC, microdilution; type: cell-based; settings: Staphylococcus aureus, ATCC25923; 18 h, 35 °C, MH II medium
Description: as §4, §5

P. aeruginosa ATCC 15442 = assay: MIC, microdilution; type: cell-based; settings: Pseudomonas aeruginosa, ATCC15442; 18 h, 35 °C, MH II medium
Description: as §4, §5

S.aureus NCTC 4163 = assay: MIC, microdilution; type: cell-based; settings: Staphylococcus aureus, NCTC4163; 18 h, 35 °C, MH II medium
Description: as §4, §5

S.aureus ATCC 6538 = assay: MIC, microdilution; type: cell-based; settings: Staphylococcus aureus, ATCC6538; 18 h, 35 °C, MH II medium
Description: as §4, §5

[7] = test system: S. epiderminis ATCC 122228; assay: MIC, microdilution; type: cell-based; settings: Staphylococcus epidermidis, ATCC122228, 18 h, read-out: MIC S. epiderminis ATCC 122228
Description: as §4, §5

clinical strains = assay: organism not typed; type: cell-based; settings: read-out: MIC clinical strains
Description: as §5

Row | SMILES | IC50 [1] [µM] | IC50 [2] [µM] | IC50 [3] [µM] | melting point [°C] | IC50 [4] [µM] | IC50 [5] [µM] | also measured
1 | COc1cc2c(CBr)c(C(C)=O)oc2c(C(C)=O)c1OC [1,1′-[3-(bromomethyl)-5,6-dimethoxy-1-benzofuran-2,7-diyl]diethanone] | – | – | – | – | – | – | IC50 (HL-60 leukemic cell line): 0.1 µM; IC50 (K562 leukemic cell line): 5 µM; Toxicity toward HeLa cancer cells (HeLa cancer cells): exhibiting toxicity toward neither HeLa cancer cells
2 | CC(C)C[C@H](NC(=O)[C@H](Cc1ccccc1)NC(=O)c1cnccn1)B(O)O [Bortezomib, reference compound] | 0.04 ± 0.01 | – | – | – | – | – | –
3 | COc1ccc2oc(C(C)=O)c(C)c2c1 [Compound 1, 1-(5-Methoxy-3-Methyl-1-Benzofuran-2-yl)Ethanone] | 57 ± 3.5 | > 100 | 80 ± 20 | 93 to 96 | > 100 | > 100 | –
4 | COc1cc(OC)c2c(C)c(C(C)=O)oc2c1 [Compound 2, 1-(4,6-Dimethoxy-3-Methyl-1-Benzofuran-2-yl)Ethanone] | 36.3 ± 4.5 | 67.3 ± 29.7 | > 100 | 115 to 118 | > 100 | > 100 | –
5 | CCOc1cccc2oc(C(C)=O)c(C)c12 [Compound 3, 1-(4-Ethoxy-3-Methyl-1-Benzofuran-2-yl)Ethanone] | 58 ± 21.1 | > 100 | 66.4 ± 28.7 | 60 to 65 | 52.3 ± 22.5 | > 100 | –
6 | CCOc1ccc2c(C)c(C(C)=O)oc2c1 [Compound 4, 1-(6-Ethoxy-3-Methyl-1-Benzofuran-2-yl)Ethanone] | 60 ± 9 | 55.3 ± 33.4 | > 100 | 86 to 90 | > 100 | > 100 | –
7 | COc1ccc2oc(C(C)=O)c(CBr)c2c1 [Compound 5, 1-[3-(Bromomethyl)-5-Methoxy-1-Benzofuran-2-yl]Ethanone] | 10.3 ± 0.55 | 15 ± 0.8 | 17.5 ± 3.5 | 103 to 106 | 15.6 ± 4.1 | > 100 | –
8 | COc1cc2oc(C(C)=O)c(CBr)c2c(OC)c1Br [Compound 7, 1-[5-Bromo-3-(Bromomethyl)-4,6-Dimethoxy-1-Benzofuran-2-yl]Ethanone] | 50 ± 10 | 5.69 ± 5.67 | 40 ± 15 | 165 to 171 | 47.1 ± 22.2 | > 100 | MIC (E. coli ATCC 25922): > 512 µg/mL; MIC [6]: 16 µg/mL (≈ 40.8 µM); MIC (S.aureus NCTC 29213): 32 µg/mL (≈ 81.6 µM); MIC (S.aureus ATCC 25923): 16 µg/mL (≈ 40.8 µM); MIC (P. aeruginosa ATCC 15442): > 512 µg/mL; MIC (S.aureus NCTC 4163): > 512 µg/mL; MIC (S.aureus ATCC 6538): 64 µg/mL (≈ 163 µM); MIC [7]: 16 µg/mL (≈ 40.8 µM); MIC (clinical strains): > 250 µg/mL
9 | CCOc1ccc2c(CBr)c(C(C)=O)oc2c1 [Compound 9, 1-[3-(Bromomethyl)-6-Ethoxy-1-Benzofuran-2-yl]Ethanone] | 14.4 ± 3.7 | 22.8 ± 1.51 | 40 ± 20 | 98 to 105 | > 100 | > 100 | –
10 | COc1cccc2c1C(=O)c1c(O)c3c(c(O)c1C2=O)C[C@@](O)(C(=O)CO)C[C@@H]3O[C@H]1C[C@H](N)[C@H](O)[C@H](C)O1 [Doxorubicin, reference compound] | 0.21 ± 0.1 | – | – | – | – | – | –
